From ChEMBL document CHEMBL5500412, “Discovery of Highly Selective, Potent, Covalent, and Orally Bioavailable Factor XIIa Inhibitors for the Treatment of Thrombo-Inflammation” (J Med Chem, 2024)
The source made the active and inactive calls. The rule behind the calls is not given here.

Assays:
[1] = molecular target: Chymotrypsin (Homo sapiens, UniProt Q99895+P17538+P40313+Q6GPI1); experiment: Inhibition of Chymotrypsin (unknown origin) using N-Suc-Ala-Ala-Pro-Phe-pNA as chromogenic substrate incubated for 20 mins followed by substrate addition by spectrophotometric analysis; format: protein assay
[2] = molecular target: T1, Coagulation factor XII (Homo sapiens) (UniProt P00748); experiment: Covalent inhibition of FXIIa (unknown origin) at 20 to 40 nM measured after 10 mins; conditions: dose 20-40 nM
T1 sequence (whole entry): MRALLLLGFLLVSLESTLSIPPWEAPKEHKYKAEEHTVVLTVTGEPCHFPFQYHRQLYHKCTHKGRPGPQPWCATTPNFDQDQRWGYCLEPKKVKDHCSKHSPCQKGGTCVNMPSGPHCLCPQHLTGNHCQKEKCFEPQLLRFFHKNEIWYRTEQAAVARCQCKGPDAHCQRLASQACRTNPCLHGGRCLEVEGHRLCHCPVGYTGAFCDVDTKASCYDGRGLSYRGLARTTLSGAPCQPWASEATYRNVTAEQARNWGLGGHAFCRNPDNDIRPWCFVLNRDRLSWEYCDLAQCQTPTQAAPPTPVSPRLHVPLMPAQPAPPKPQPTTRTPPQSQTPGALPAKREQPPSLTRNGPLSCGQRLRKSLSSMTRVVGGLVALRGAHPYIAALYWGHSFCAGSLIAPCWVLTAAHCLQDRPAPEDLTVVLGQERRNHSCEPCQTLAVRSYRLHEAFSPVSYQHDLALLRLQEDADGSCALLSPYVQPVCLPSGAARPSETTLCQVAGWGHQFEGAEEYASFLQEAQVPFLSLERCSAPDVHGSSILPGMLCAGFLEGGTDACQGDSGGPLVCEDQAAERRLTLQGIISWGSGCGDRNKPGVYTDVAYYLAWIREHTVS

[3] = molecular target: T2, Coagulation factor XII (Homo sapiens, UniProt P00748); experiment: Binding affinity to FXIIa (unknown origin) assessed as inhibition constant using H-D-Pro-Phe-Arg-pNA.2HCl as substrate by spectrophotometric analysis
T2 sequence (P00748 whole entry): T1 sequence (whole entry)

[4] = molecular target: T1, Coagulation factor XII (Homo sapiens); experiment: Binding affinity to FXIIa (unknown origin) assessed as inactivation rate using H-D-Pro-Phe-Arg-pNA.2HCl as substrate by spectrophotometric analysis
[5] = molecular target: T1, Coagulation factor XII (Homo sapiens); experiment: Binding affinity to FXIIa (unknown origin) assessed as Kinact/Ki using H-D-Pro-Phe-Arg-pNA.2HCl as substrate by spectrophotometric analysis
[6] = Half life in BALB/c mouse at 1 mg/kg, iv measured upto 24 hrs by LC-MS/MS analysis; format: ADME, organism-based; conditions: in vivo
[7] = Tmax in BALB/c mouse at 1 mg/kg, iv measured upto 24 hrs by LC-MS/MS analysis; format: ADME, organism-based; conditions: in vivo
[8] = Clearance in BALB/c mouse at 1 mg/kg, iv measured upto 24 hrs by LC-MS/MS analysis; format: ADME, organism-based; conditions: in vivo
[9] = Apparent volume of distribution in BALB/c mouse at 1 mg/kg, iv measured upto 24 hrs by LC-MS/MS analysis; format: ADME, organism-based; conditions: in vivo, read-out: Vz
[10] = AUC (0 to infinity) in BALB/c mouse at 1 mg/kg, iv measured upto 24 hrs by LC-MS/MS analysis; format: ADME, organism-based; conditions: in vivo
[11] = MRT (0 to infinity) in BALB/c mouse at 1 mg/kg, iv measured upto 24 hrs by LC-MS/MS analysis; format: ADME, organism-based; conditions: in vivo
[12] = Tmax in BALB/c mouse at 5 mg/kg, po measured upto 24 hrs by LC-MS/MS analysis; format: ADME, organism-based; conditions: in vivo
[13] = AUC (0 to infinity) in BALB/c mouse at 5 mg/kg, po measured upto 24 hrs by LC-MS/MS analysis; format: ADME, organism-based; conditions: in vivo
[14] = Oral bioavailability in BALB/c mouse at 5 mg/kg measured upto 24 hrs by LC-MS/MS analysis; format: ADME, organism-based; conditions: in vivo
[15] = test system: Mus musculus; experiment: Antithrombotic activity in carrageenan induced thrombosis in male BALB/c mouse model assessed as inhibition of tail thrombosis at 20 mg/kg, IG administered for 9 days with carrageenan stimulation on day 7 by H and E staining based analysis; format: functional, organism-based; conditions: time 9.0 day
[16] = test system: Mus musculus; experiment: Antiinflammatory activity in carrageenan-induced thrombosis in male BALB/c mouse model assessed as reduction in IL-1 beta level at 10 to 30 mg/kg, po by ELISA method; format: functional, organism-based; conditions: dose 10-30 mg/kg
[17] = Toxicity in BALB/c mouse assessed as prolongation of bleeding time at 60 mg/kg, po measured after 90 mins; format: organism-based; conditions: in vivo, 1.5 h
[18] = Toxicity in BALB/c mouse assessed as effect on heart at 60 to 100 mg/kg, po measured after 14 days by H and E staining based analysis; format: organism-based; conditions: in vivo, 336 h, dose 60-100 mg/kg, time 14 day
[19] = Toxicity in BALB/c mouse assessed as effect on liver at 60 to 100 mg/kg, po measured after 14 days by H and E staining based analysis; format: organism-based; conditions: in vivo, 336 h, dose 60-100 mg/kg, time 14 day
[20] = Toxicity in BALB/c mouse assessed as effect on lung at 60 to 100 mg/kg, po measured after 14 days by H and E staining based analysis; format: organism-based; conditions: in vivo, 336 h, dose 60-100 mg/kg, time 14 day
[21] = Toxicity in BALB/c mouse assessed as effect on spleen at 60 to 100 mg/kg, po measured after 14 days by H and E staining based analysis; format: organism-based; conditions: in vivo, 336 h, dose 60-100 mg/kg, time 14 day
[22] = Toxicity in BALB/c mouse assessed as effect on kidney at 60 to 100 mg/kg, po measured after 14 days by H and E staining based analysis; format: organism-based; conditions: in vivo, 336 h, dose 60-100 mg/kg, time 14 day
[23] = Toxicity in BALB/c mouse assessed as effect on ALP level in serum at 60 to 100 mg/kg, po measured after 14 days; format: organism-based; conditions: in vivo, 336 h, dose 60-100 mg/kg, time 14 day
[24] = Toxicity in BALB/c mouse assessed as effect on ALT level in serum at 60 to 100 mg/kg, po measured after 14 days; format: organism-based; conditions: in vivo, 336 h, dose 60-100 mg/kg, time 14 day
[25] = Toxicity in BALB/c mouse assessed as effect on AST level in serum at 60 to 100 mg/kg, po measured after 14 days; format: organism-based; conditions: in vivo, 336 h, dose 60-100 mg/kg, time 14 day
[26] = Toxicity in BALB/c mouse assessed as effect on CREA level in serum at 60 to 100 mg/kg, po measured after 14 days; format: organism-based; conditions: in vivo, 336 h, dose 60-100 mg/kg, time 14 day
[27] = Toxicity in BALB/c mouse assessed as effect on UA level in serum at 60 to 100 mg/kg, po measured after 14 days; format: organism-based; conditions: in vivo, 336 h, dose 60-100 mg/kg, time 14 day
[28] = Toxicity in BALB/c mouse assessed as effect on UREA level in serum at 60 to 100 mg/kg, po measured after 14 days; format: organism-based; conditions: in vivo, 336 h, dose 60-100 mg/kg, time 14 day
[29] = Toxicity in BALB/c mouse assessed as effect on HBDH level in serum at 60 to 100 mg/kg, po measured after 14 days; format: organism-based; conditions: in vivo, 336 h, dose 60-100 mg/kg, time 14 day
[30] = test system: Smooth muscle cell; experiment: Ant-icalcification activity in human aortic Smooth muscle cell at 10 uM measured after 14 days with replacement of fresh medium for every 2 to 3 days by Alizarin red S staining based analysis; format: functional; conditions: time 14.0 day
[31] = test system: Mus musculus; experiment: Antiinflammatory activity in carrageenan-induced thrombosis in male BALB/c mouse model assessed as reduction in IL-1 beta level administered as oral dose by ELISA method; format: functional, organism-based; conditions: dose 10-30 mg/kg

Compound: CC(C)N1CCCN(c2ccc(C(=O)n3nc(-c4ccccn4)nc3N)c3ccccc23)CC1
- IC50 [1]: > 25 µM
- inhibition [2]: Active
- Ki [3]: 0.0114 µM
- Kinact [4]: 0.027 min⁻¹
- K [5]: 2.37 10^6/M/min
- half-life [6]: 45 min
- Tmax [7]: 23.4 min
- CL [8]: 1270 mL/min/kg
- Vd [9]: 105 L/kg
- AUC(0-inf) [10]: 13.3 ng·h/mL
- MRT inf [11]: 94.8 min
- Tmax [12]: 60 min
- AUC(0-inf) [13]: 17.8 ng·h/mL
- bioavailability [14]: 28.2%
- Activity [15]: Active
- Activity [16]: Active
- Activity [17]: Non-Toxic
- Activity [18]: Non-Toxic
- Activity [19]: Non-Toxic
- Activity [20]: Non-Toxic
- Activity [21]: Non-Toxic
- Activity [22]: Non-Toxic
- Activity [23]: Non-Toxic
- Activity [24]: Non-Toxic
- Activity [25]: Non-Toxic
- Activity [26]: Non-Toxic
- Activity [27]: Non-Toxic
- Activity [28]: Non-Toxic
- Activity [29]: Non-Toxic

Compound: CC(C)N1CCN(c2ccc(C(=O)n3nc(-c4ccccn4)nc3N)c3ccccc23)CC1
- IC50 [1]: > 25 µM
- Activity [30]: Active
- Activity [15]: Active
- Activity [31]: Dose-Dependent Effect
